Results published in PubChem BioAssay (NCI).
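Method: 48-hour compound exposure of cells in 96-well plates, five concentrations, linear interpolation of endpoints. GI50: concentration for 50% inhibition of growth. TGI marks complete inhibition of growth.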

Legend:
Assay in all cases: NCI anticancer screen, dose series, 48 h
CCRF-CEM leukemia = tested on: CCRF-CEM leukemia
HCT-116 colon = tested on: HCT-116 colon
HOP-92 NSCLC = tested on: HOP-92 NSCLC
OVCAR-8 ovarian = tested on: OVCAR-8 ovarian
CAKI-1 renal = tested on: CAKI-1 renal
DU-145 prostate = tested on: DU-145 prostate
NCI-H226 lung = tested on: NCI-H226 lung
NCI-H23 lung = tested on: NCI-H23 lung
LOX IMVI melanoma = tested on: LOX IMVI melanoma
OVCAR-4 ovarian = tested on: OVCAR-4 ovarian

Compound	TGI (CCRF-CEM leukemia) [µM]	TGI (HCT-116 colon) [µM]	TGI (HOP-92 NSCLC) [µM]	TGI (OVCAR-8 ovarian) [µM]	TGI (CAKI-1 renal) [µM]	TGI (DU-145 prostate) [µM]	TGI (NCI-H226 lung) [µM]	TGI (NCI-H23 lung) [µM]	TGI (LOX IMVI melanoma) [µM]	TGI (OVCAR-4 ovarian) [µM]	GI50 (HOP-92 NSCLC) [µM]	GI50 (NCI-H226 lung) [µM]	GI50 (LOX IMVI melanoma) [µM]
COc1ccc2c(c1)C(N)=C(c1ccccc1)C2=O	> 100	> 100	> 100	> 100	> 100	> 100	> 100	> 100	> 100	> 100	–	–	–
CO/C(=N\N=C\c1cccc(Cl)c1)c1ccncc1	> 10	> 10	> 10	> 10	> 10	> 10	> 10	> 10	> 10	> 10	–	–	–
c1ccc(CCNCc2ccco2)nc1	> 100	> 100	> 100	> 100	> 100	> 100	> 100	> 100	> 100	> 100	–	–	–
Cc1ccc(C(=O)O)c(CC2Cc3c(C)cccc3C2=O)c1 (stereo not drawn)	> 100	> 100	> 100	> 100	> 100	> 100	> 100	> 100	> 100	> 100	–	–	–
CC(=O)O[C@@H]1C[C@@]23C[C@@]24CC[C@H](OC2OCC(O)C(O)C2O)C(C)(C)[C@@H]4CC=C3[C@]2(C)C[C@@H]3OC4(C[C@@H](C)[C@@H]3[C@@]12C)OC(O)[C@@]1(C)O[C@@H]41 (stereo partly drawn)	63.5	49.7	> 100	> 100	> 100	> 100	> 100	> 100	57	> 100	–	–	–
C=C(CCC(C)C1CCC2C3=C(C(=O)CC21C)C1(C)CCC(=O)[C@@H](C)C1CC3=O)C(C)C(=O)O (stereo partly drawn)	42.2	> 100	78.7	> 100	72.3	> 100	> 100	> 100	33.8	> 100	–	–	–
COc1cc2nc(-c3ccc4ccccc4c3)[nH]c(=O)c2cc1OC	> 100	> 100	> 100	> 100	> 100	> 100	> 100	> 100	> 100	> 100	–	–	–
O=C(CSCC(=O)N/N=C/c1cccs1)N/N=C/c1cccs1	> 100	> 100	> 100	> 100	> 100	> 100	> 100	> 100	> 100	> 100	–	–	–
NC(=S)N/N=C\c1ccc(OCc2cccc(COc3ccc(/C=N/NC(N)=S)cc3)n2)cc1	> 100	> 100	> 100	> 100	> 100	> 100	> 100	> 100	> 100	> 100	–	–	–
Cc1ccncc1.F[B-](F)(F)F.[Pt+2].c1ccc(-c2cccc(-c3ccccn3)n2)nc1	> 100	> 100	> 100	31	> 62.1	> 100	5.36	> 88	> 88.4	> 100	10.2	0.618	1.28
COc1cccc(CC(C)NCC(O)c2ccc(O)c(O)c2)c1 (stereo not drawn)	> 100	> 100	> 100	53.6	> 100	> 100	90.2	> 100	> 100	> 100	–	–	–
CCOC(=O)C(=[N+]=[N-])C(=O)Nc1nn2nnnc2c2ccccc12	> 100	> 100	> 100	> 100	> 100	> 100	> 100	> 100	> 100	> 100	–	–	–
O=C1NC(=O)/C(=C/c2ccc(S(=O)(=O)N/N=C/c3ccc(Cl)cc3)cc2)N1	> 100	> 100	> 100	> 100	> 100	> 100	> 100	> 100	> 100	> 100	–	–	–
CN1CCN(c2c(Cl)cc(Cl)c3[nH]c4ccccc4c(=O)c23)CC1	> 36.2	> 42.6	10.9	27.9	20.6	16.6	23	27	> 42.6	46.2	–	–	–
COc1ccc(N(C)C(=O)N(C)c2ccc([N+](=O)[O-])cc2)cc1	> 100	> 100	> 100	> 100	> 100	> 100	> 100	> 100	> 100	> 100	–	–	–
CN(C)/N=C/c1cn(C)c(=O)n(C)c1=O	> 100	> 100	> 100	> 100	> 100	> 100	> 100	> 100	> 100	> 100	–	–	–
